This passage reports dTm and binding results from PMC6856162 (2019).

Test [1] relates to (5′CAG/3′GAC)x6; AAx6; AA × 6 (RNA, repeat) GGGAGAGGGUUUAAUCAGCAGCAGCAGCAGCAGUACGAAAGUACAGCAGCAGCAGCAGCAGAUUGGAUCCGCAAGG
The test can be described thus: UV melting. As to conditions: Na+ 10 mM Na2HPO4 + 0.1 M NaCl (melting buffer not given; assumed same as CD/ITC buffer, which also has 50 mM EDTA); derived from two Tm (51.8, 57.9); D/N 2.0; per base.

Test [2] shares this test system. Kind of test: ITC. As to conditions: 0.1 M NaCl; 10 mM Na2HPO4, EDTA, pH 7.2; two-site fit; nanomolar range stated.
For test [3], the system named is 5′r(CCGCAGCGG)3′ (RNA, mismatch bulge abasic) CCGCAGCGG
The test can be described thus: 1D and 2D NMR titration. As to conditions: 298 K; D/N 0.0 to 2.0.

Test [4] relates to (5′CAG/3′GAC)x6; AAx6; AA × 6 (RNA, repeat) GGGAGAGGGUUUAAUCAGCAGCAGCAGCAGCAGUACGAAAGUACAGCAGCAGCAGCAGCAGAUUGGAUCCGCAAGG
Kind of test: fluorescence titration. As to conditions: room temperature; two-site fit.

As to `Cc1cc2ccccc2nc1-c1ccccc1F`, the dTm in test [1] came out at 6.1 °C. Also, the binding result in test [2], in test [3] and in test [4] was “yes” in each case.
